Experimental data: US20240059689A1, “PURINE DERIVATIVES AS ANTICANCER AGENTS” (Tango Therapeutics, Inc., priority 2021, published 2024)

Experiments:
HCC1954 = assay: Viability assay, BRCA1 WT cell line HCC1954; type: cell-based; settings: Homo sapiens, HCC1954, viability, read-out: HCC1954 rel IC50
Text: (§1) Table 1 also indicates IC50 values in a viability assay for a non-isogenic pair of BRCA1 mutant (column 5-MDA-MB-436) and BRCA1 WT (column 6—HCC1954) cell lines. These values indicate the effect of treatment with compound on cell survival.

USP1-UAF1 = USP1-UAF1 (Homo sapiens, UniProt O94782); assay: Ubiquitin Rhodamine assay of USP1-UAF1 activity; type: biochemical
USP1-UAF1, sequence (O94782 whole entry): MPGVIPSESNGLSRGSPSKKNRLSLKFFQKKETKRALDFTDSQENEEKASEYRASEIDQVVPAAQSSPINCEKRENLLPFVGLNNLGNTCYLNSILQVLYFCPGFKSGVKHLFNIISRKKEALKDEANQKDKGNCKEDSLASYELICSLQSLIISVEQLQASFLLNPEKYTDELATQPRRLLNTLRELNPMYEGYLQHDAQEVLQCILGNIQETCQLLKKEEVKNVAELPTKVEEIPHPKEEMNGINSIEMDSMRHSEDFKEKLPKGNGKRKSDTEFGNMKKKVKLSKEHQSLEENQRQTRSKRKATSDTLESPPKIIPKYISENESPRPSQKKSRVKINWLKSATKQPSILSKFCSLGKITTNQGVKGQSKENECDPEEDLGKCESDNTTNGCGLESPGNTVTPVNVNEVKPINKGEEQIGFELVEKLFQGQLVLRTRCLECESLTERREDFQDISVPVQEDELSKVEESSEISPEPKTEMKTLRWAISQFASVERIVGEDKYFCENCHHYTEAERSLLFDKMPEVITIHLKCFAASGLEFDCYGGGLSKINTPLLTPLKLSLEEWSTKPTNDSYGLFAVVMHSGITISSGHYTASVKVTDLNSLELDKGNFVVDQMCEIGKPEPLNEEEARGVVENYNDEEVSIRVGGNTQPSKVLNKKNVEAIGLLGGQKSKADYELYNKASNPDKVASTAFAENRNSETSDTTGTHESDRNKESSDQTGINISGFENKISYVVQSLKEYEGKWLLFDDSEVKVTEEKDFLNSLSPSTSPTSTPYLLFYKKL
USP1-UAF1, sequence (Q8TAF3 whole entry partner): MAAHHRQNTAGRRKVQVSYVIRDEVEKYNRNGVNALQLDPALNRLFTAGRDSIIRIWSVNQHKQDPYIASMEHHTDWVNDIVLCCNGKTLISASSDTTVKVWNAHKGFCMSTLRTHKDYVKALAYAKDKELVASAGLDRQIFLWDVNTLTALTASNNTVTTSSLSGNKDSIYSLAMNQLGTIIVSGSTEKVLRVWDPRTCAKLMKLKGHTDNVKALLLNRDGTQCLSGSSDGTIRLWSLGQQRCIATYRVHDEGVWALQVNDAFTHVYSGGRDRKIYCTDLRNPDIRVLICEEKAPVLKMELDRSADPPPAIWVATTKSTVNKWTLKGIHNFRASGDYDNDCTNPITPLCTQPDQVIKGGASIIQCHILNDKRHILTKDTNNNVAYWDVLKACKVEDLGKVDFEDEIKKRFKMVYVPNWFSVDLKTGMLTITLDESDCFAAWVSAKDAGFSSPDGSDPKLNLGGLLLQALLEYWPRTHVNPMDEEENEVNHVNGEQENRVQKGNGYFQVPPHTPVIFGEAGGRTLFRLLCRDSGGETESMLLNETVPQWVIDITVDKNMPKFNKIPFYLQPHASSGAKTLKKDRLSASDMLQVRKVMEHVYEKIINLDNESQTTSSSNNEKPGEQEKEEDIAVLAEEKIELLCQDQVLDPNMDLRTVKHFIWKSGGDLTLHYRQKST
Protocol: Certain compounds of the disclosure were assessed for USP1-UAF1 activity in a Ubiquitin Rhodamine assay as described in Biology Example 1.

monoubiquitinated PCNA = assay: AlphaLISA assay measuring monoubiquitinated PCNA in MDA-MB-436; type: cell-based; settings: Homo sapiens, MDA-MB-436, monoubiquitinated PCNA, read-out: Alpha Lisa IC50
Text: Table 1 also indicates IC50 values for exemplary compounds in an AlphaLISA assay measuring monoubiquitinated PCNA in a BRCA1 mutant cell line (MDA-MB-436; column 7).

MDA-MB-436 = assay: Viability assay, BRCA1 mutant cell line MDA-MB-436; type: cell-based; settings: Homo sapiens, MDA-MB-436, viability, BRCA1 mutant MDA-MB-436; read-out: MDA-MB-436 rel IC50
Text: as §1

IC50 (HCC1954) | IC50 (USP1-UAF1) | IC50 (monoubiquitinated PCNA) | IC50 (MDA-MB-436) | SMILES
≥ 10000 nM | 30 to 100 nM | 100 to 250 nM | 100 to 250 nM | COc1ncnc(C2CC2)c1-c1ncc2c(n1)n(Cc1ccc(-c3nc(C(F)(F)F)cn3CC(F)F)cc1)c(=N)n2C [Example T-069]
250 to 10000 nM | 30 to 100 nM | 250 to 10000 nM | 250 to 10000 nM | Cc1ccc(-c2ncc3c(n2)n(Cc2ccc(-c4nc(C(F)(F)F)cn4C)cc2)c(=N)n3C)c(C(C)C)c1 [Example T-070, 2-(2-isopropyl-4-methyl-phenyl)-7-methyl-9-[[4-[1-methyl-4-(trifluoromethyl)imidazol-2-yl]phenyl]methyl]purin-8-imine]
250 to 10000 nM | 30 to 100 nM | < 100 nM | 100 to 250 nM | CC(C)c1cc(C#N)ccc1-c1ncc2c(n1)n(Cc1ccc(-c3nc(C(F)(F)F)cn3C)cc1)c(=N)n2C [Example T-071, 4-[8-imino-7-methyl-9-[[4-[1-methyl-4-(trifluoromethyl)imidazol-2-yl]phenyl]methyl]purin-2-yl]-3-isopropyl-benzonitrile]
≥ 10000 nM | 30 to 100 nM | 100 to 250 nM | 250 to 10000 nM | CC(C)c1ncccc1-c1ncc2c(n1)n(Cc1ccc(-c3nc(C(F)(F)F)cn3C)cc1)c(=N)n2C [Example T-076, 2-(2-isopropyl-3-pyridyl)-7-methyl-9-[[4-[1-methyl-4-(trifluoromethyl)imidazol-2-yl]phenyl]methyl]purin-8-imine]
≥ 10000 nM | < 30 nM | < 100 nM | < 100 nM | COc1ncnc(C2CC2)c1-c1ncc2c(n1)n(Cc1ccc(-n3nc(C(F)(F)F)cc3OC)cc1)c(=N)n2C [Example T-078]
≥ 10000 nM | 100 to 10000 nM | 100 to 250 nM | 250 to 10000 nM | Cn1cc(C(F)(F)F)nc1-c1ccc(Cn2c(=N)n(C)c3cnc(-c4cccnc4OCC(F)(F)F)nc32)cc1 [Example T-079, 7-methyl-9-[[4-[1-methyl-4-(trifluoromethyl)imidazol-2-yl]phenyl]methyl]-2-[2-(2,2,2-trifluoroethoxy)-3-pyridyl]purin-8-imine]
≥ 10000 nM | < 30 nM | < 100 nM | 100 to 250 nM | CC(C)c1ccccc1-c1ncc2c(n1)n(Cc1ccc(-c3nc(C(F)(F)F)cn3C)cc1O)c(=N)n2C [Example T-081]

Further lines, the compound ahead of its results:

SMILES | IC50 (HCC1954) | IC50 (USP1-UAF1) | IC50 (monoubiquitinated PCNA) | IC50 (MDA-MB-436)
CCn1cc(C(F)(F)F)nc1-c1ccc(Cn2c(=N)n(C)c3cnc(-c4cccnc4OC)nc32)cc1 [Example T-057] | ≥ 10000 nM | 100 to 10000 nM | 250 to 10000 nM | 250 to 10000 nM
CC(C)c1ccccc1-c1ncc2c(n1)n(Cc1ccc(-c3nc(C(F)(F)F)c(Br)n3C)cc1)c(=N)n2C [Example T-059] | 250 to 10000 nM | < 30 nM | < 100 nM | < 100 nM
COc1ncccc1-c1ncc2c(n1)n(Cc1ccc(-c3nc(C(F)(F)F)cn3CC(F)F)cc1)c(=N)n2C [Example T-060] | ≥ 10000 nM | 100 to 10000 nM | 250 to 10000 nM | ≥ 10000 nM
COn1cc(C(F)(F)F)nc1-c1ccc(Cn2c(=N)n(C)c3cnc(-c4ccccc4C(C)C)nc32)cc1 [Example T-061] | 250 to 10000 nM | < 30 nM | 100 to 250 nM | 100 to 250 nM
CCn1cc(C(F)(F)F)nc1-c1ccc(Cn2c(=N)n(C)c3cnc(-c4ccccc4C(F)(F)F)nc32)cc1 [Example T-063, 9-(4-(1-ethyl-4-(trifluoromethyl)-1H-imidazol-2-yl)benzyl)-7-methyl-2-(2-(trifluoromethyl)phenyl)-7H-purin-8(9H)-imine] | ≥ 10000 nM | 30 to 100 nM | 100 to 250 nM | 100 to 250 nM
Cn1cc(C(F)(F)F)nc1-c1ccc(Cn2c(=N)n(C)c3cnc(-c4cccnc4OCC(C)(C)C)nc32)cc1 [Example T-064] | ≥ 10000 nM | 100 to 10000 nM | 250 to 10000 nM | 250 to 10000 nM
COc1nccc(F)c1-c1ncc2c(n1)n(Cc1ccc(-c3nc(C(F)(F)F)cn3C)cc1)c(=N)n2C [Example T-065] | ≥ 10000 nM | 30 to 100 nM | 100 to 250 nM | 100 to 250 nM
COCCn1cc(C(F)(F)F)nc1-c1ccc(Cn2c(=N)n(C)c3cnc(-c4ccccc4C(F)(F)F)nc32)cc1 [Example T-066] | ≥ 10000 nM | 100 to 10000 nM | 250 to 10000 nM | 250 to 10000 nM
Cn1cc(C(F)(F)F)nc1-c1ccc(Cn2c(=N)n(C)c3cnc(-c4c(Cl)cnn4C)nc32)cc1 [Example T-067] | ≥ 10000 nM | 30 to 100 nM | 250 to 10000 nM | 250 to 10000 nM
